# Test results taken from patent US11123338B2, “C-met modulator pharmaceutical compositions” (Exelixis, Inc., priority 2010, dated 2021).
# Columns and labels:
# [1] = Moisture uptake / hygroscopicity (moisture vapor isotherm); type: physicochemical; settings: for Hygroscopicity (remark in words): salt screen summary table
# Procedure: Moisture sorption isotherms were collected in a VTI SGA-100 Symmetric Vapor Analyzer using approximately 10 mg of sample. The sample was dried at 60° C. until the loss rate of less than or equal to 0.0005 weight percent per minute was obtained for 10 minutes. […] Equilibration at each RH was reached when the rate of less than or equal to 0.0003 weight percent per minute for 35 minutes was achieved, or at a maximum of 600 minutes.
# [2] = Solid-state stability on exposure to high humidity and high temperature; type: physicochemical
# [3] = Water solubility of free base and salts from the salt screen; settings: for Solubility (remark in words): salt screen
# Procedure: The water solubility of the various salts was determined using 10 mg solids per mL water.
# [4] = Thermal stability by DSC/TGA; type: physicochemical
# Procedure: The sample (about 10-30 mg) was placed in a previously tared platinum pan. The weight of the sample was measured accurately and recorded to a thousand of a milligram. The furnace was purged with nitrogen gas at 100 mL/min. Data were collected between room temperature and 300° C. at 10° C./min heating rate.
# The sample (about 2-6 mg) was weighed in an aluminum pan, accurately recorded to a hundredth of a milligram, and transferred to the DSC. The instrument was purged with nitrogen gas at 50 mL/min. Data were collected between room temperature and 300° C. at a 10° C./min heating rate.
# [5] = Storage stability under controlled temperature / relative humidity; type: physicochemical
# [6] = water, thermodynamic from solid
# [7] = water solubility, 10 mg solids per mL water
Compound,Hygroscopicity (remark in words) [1],"solubility [3, 6]",Solubility (remark in words) ([3]; water solubility),"solubility [3, 7]",also measured
Cl [Chloride],Crystalline but Hygroscopic; possible,,,,Moisture sensitivity (phase behaviour on exposure) ([2]; high humidity (75 percent RH) and high temperature (40° C.)): changing phase
"COc1cc2nccc(Oc3ccc(NC(=O)C4(C(=O)Nc5ccc(F)cc5)CC4)cc3)c2cc1OC [Free base, N-[4-[(6,7-Dimethoxy-4-quinolinyl)oxy]phenyl]-N′-(4-fluorophenyl)-1,1-cyclopropanedicarboxamide]",,< 1 µg/mL,very low solubility,,
O=C(O)[C@H](O)[C@@H](O)C(=O)O [L-Tartrate],Hygroscopic.,,,,
Tosylate,,,"Crystalline salt, low solubility",7 µg/mL,

# Continued, in another order:
Hygroscopicity (remark in words) [1],"solubility [3, 6]",Compound,Solubility (remark in words) ([3]; water solubility),"solubility [3, 7]",also measured
Crystalline; non-Hygroscopic with no,59 µg/mL,"COc1cc2nccc(Oc3ccc(NC(=O)C4(C(=O)Nc5ccc(F)cc5)CC4)cc3)c2cc1OC.O=C(O)C[C@@H](O)C(=O)O [L-Malate, cyclopropane-1,1-dicarboxylic acid [4-(6,7-dimethoxy-quinoline-4-yloxy)-phenyl]-amide (4-fluoro-phenyl)-amide, (L) malate salt]",,,"Stable up to (DSC/TGA) [4]: up to 185 °C; Solubility (remark in words) ([3]; water solubility, listed as L-malate salt, malate salt): sufficient solubility; Change in assay, purity, moisture, and dissolution ([5]; 25° C./60 percent relative humidity (RH)): no change; Change in assay, purity, moisture, and dissolution ([5]; 40° C./60 percent RH): no change; Chemical/physical stability (remark in words) ([5]; salt screen summary table): chemical/physical stability.; Amount of water taken up ([1]; at 90 percent RH): about 0.60 weight percent; Solid state phase and degree of crystallinity after exposure ([2]; 75 percent RH at 40° C. for 1 week): remained unchanged"
Crystalline but Hygroscopic.,,Phosphate,,26 µg/mL,Weight gain due to absorption of H2O ([1]; highest among the salts tested): 8%
